Strand notation (5' to 3'): a small letter for the sugar, then the base; units joined by * are phosphorothioate-linked, units joined directly phosphodiester-linked; [ ] holds rarer units or linkages, { } end groups; capitals alone tell only the bases. e = 2'-O-(2-methoxyethyl) (MOE); [5mC] = 5-methylcytosine; d = 2'-deoxy (DNA)
System: human Factor 7 mRNA
Assay: Antisense inhibition of human Factor 7 mRNA in HepB3 cells, 50 nM antisense oligonucleotide, lipofectin
Assay type: cell-based
Settings: for % Inhibition: lipofectin, approximately 24 hours
How it was run: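 4,000 cells/well; ~24 h exposure; RNA isolated; probe set RTS 2927; normalised to RIBOGREEN® total RNA; % inhibition vs untreated.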

[1] = 50 nM antisense oligonucleotide, Factor 7 mRNA by real-time RT-PCR (RTS 2927), relative to untreated control

Substance	% Inhibition [1] [%]	other results
416432 (antisense eA*eG*e[5mC]*eA*e[5mC]*dT*dG*d[5mC]*dT*d[5mC]*d[5mC]*dT*d[5mC]*d[5mC]*dT*eT*eG*e[5mC]*eA*e[5mC]) [compound 416432]	44	
416433 (antisense eA*eG*eA*eA*eA*dT*d[5mC]*d[5mC]*dA*dG*dA*dA*d[5mC]*dA*dG*e[5mC]*eT*eT*e[5mC]*eG) [compound 416433]	0	
416434 (antisense e[5mC]*eT*eG*eT*eA*dA*dG*dA*dA*dA*dT*d[5mC]*d[5mC]*dA*dG*eA*eA*e[5mC]*eA*eG) [compound 416434]	0	
416435 (antisense e[5mC]*e[5mC]*e[5mC]*eA*eT*d[5mC]*dA*d[5mC]*dT*dG*dT*dA*dA*dG*dA*eA*eA*eT*e[5mC]*e[5mC]) [compound 416435]	3	
416436 (antisense eA*e[5mC]*eT*eG*eG*dT*d[5mC]*d[5mC]*d[5mC]*d[5mC]*dA*dT*d[5mC]*dA*d[5mC]*eT*eG*eT*eA*eA) [compound 416436]	27	
416437 (antisense eA*eG*eG*e[5mC]*eA*d[5mC]*dA*d[5mC]*dT*dG*dG*dT*d[5mC]*d[5mC]*d[5mC]*e[5mC]*eA*eT*e[5mC]*eA) [compound 416437]	52	
416439 (antisense eG*eT*e[5mC]*e[5mC]*eT*dT*dG*d[5mC]*dA*dG*dG*dA*dG*d[5mC]*d[5mC]*e[5mC]*e[5mC]*e[5mC]*eA*eT) [compound 416439]	56	
416440 (antisense eG*eG*eA*e[5mC]*eT*dG*dG*dA*dG*d[5mC]*dT*dG*dG*dT*d[5mC]*e[5mC]*eT*eT*eG*e[5mC]) [compound 416440]	44	
416441 (antisense eA*eG*eA*eT*eA*dT*dA*dG*dG*dA*d[5mC]*dT*dG*dG*dA*eG*e[5mC]*eT*eG*eG) [compound 416441]	32	
416442 (antisense eA*eG*e[5mC]*eA*eG*dA*dT*dA*dT*dA*dG*dG*dA*d[5mC]*dT*eG*eG*eA*eG*e[5mC]) [compound 416442]	57	
416443 (antisense eG*eA*eG*eG*e[5mC]*dA*dG*dA*dA*dG*d[5mC]*dA*dG*dA*dT*eA*eT*eA*eG*eG) [compound 416443]	17	
416444 (antisense eA*e[5mC]*eA*eG*eT*dT*d[5mC]*d[5mC]*dG*dG*d[5mC]*d[5mC]*d[5mC]*dT*d[5mC]*eG*eA*eA*eG*eG) [compound 416444]	24	
416445 (antisense eT*eA*e[5mC]*eT*eG*d[5mC]*dT*d[5mC]*dA*d[5mC]*dA*dG*d[5mC]*d[5mC]*dG*e[5mC]*e[5mC]*eG*eT*eT) [compound 416445]	57	
416447 (antisense e[5mC]*eA*eT*eG*eG*dA*dT*dA*dT*dT*d[5mC]*dA*dA*d[5mC]*dT*eG*eT*eG*eG*eG) [compound 416447]	17	
416448 (antisense eT*eT*eT*eT*eT*d[5mC]*d[5mC]*dA*d[5mC]*dA*dT*dG*dG*dA*dT*eA*eT*eT*e[5mC]*eA) [compound 416448]	34	
416450 (antisense eG*eG*eT*eT*eT*dG*d[5mC]*dT*dG*dG*d[5mC]*dA*dT*dT*dT*e[5mC]*eT*eT*eT*eT) [compound 416450]	49	
416451 (antisense eG*e[5mC]*e[5mC]*eA*eT*dG*dG*dA*d[5mC]*dA*d[5mC]*dT*d[5mC]*d[5mC]*d[5mC]*e[5mC]*eT*eT*eT*eG) [compound 416451]	75	
416452 (antisense e[5mC]*e[5mC]*eA*eA*e[5mC]*dA*dA*d[5mC]*dA*dG*dG*dA*d[5mC]*d[5mC]*dT*eG*e[5mC]*e[5mC]*eA*eT) [compound 416452]	19	
416453 (antisense eG*eA*eT*eT*eT*dT*dG*dT*d[5mC]*dG*dA*dA*dA*d[5mC]*dA*eG*eT*eG*eG*eG) [compound 416453]	45	
416454 (antisense e[5mC]*eG*eT*eG*e[5mC]*dT*d[5mC]*dG*d[5mC]*d[5mC]*d[5mC]*dA*dG*d[5mC]*dA*e[5mC]*e[5mC]*eG*e[5mC]*eG) [compound 416454]	56	
416456 (antisense e[5mC]*eT*eG*e[5mC]*eG*d[5mC]*d[5mC]*dA*d[5mC]*d[5mC]*d[5mC]*dG*d[5mC]*d[5mC]*dG*eG*e[5mC]*eT*e[5mC]*eT) [compound 416456]	58	% Inhibition (human Factor 7 mRNA levels) (oligonucleotides targeted to nucleobases 13760 to 13789 of SEQ ID NO: 1 (Table 10)): 50%
416457 (antisense eG*eG*eA*eT*eG*dA*dT*dG*dA*d[5mC]*d[5mC]*dT*dG*d[5mC]*dG*e[5mC]*e[5mC]*eA*e[5mC]*e[5mC]) [compound 416457]	48	
416458 (antisense eG*eG*e[5mC]*eG*eG*dA*dG*d[5mC]*dA*dG*d[5mC]*dG*d[5mC]*dG*dA*eT*eG*eT*e[5mC]*eG) [compound 416458]	29	

Substance	% Inhibition [1] [%]	other results
416459 (antisense eT*eG*eG*eT*e[5mC]*dA*dG*dT*dG*dA*dG*dG*dA*d[5mC]*d[5mC]*eA*e[5mC]*eG*eG*eG) [compound 416459]	23	
416460 (antisense e[5mC]*eA*e[5mC]*e[5mC]*eA*d[5mC]*dA*dT*dG*dG*dT*d[5mC]*dA*dG*dT*eG*eA*eG*eG*eA) [compound 416460]	49	
416461 (antisense eG*eA*eA*eG*e[5mC]*dG*d[5mC]*dA*d[5mC]*dG*dA*dA*dG*dG*d[5mC]*e[5mC]*eA*eG*e[5mC]*eG) [compound 416461]	43	
416462 (antisense eG*eG*e[5mC]*eA*eG*dT*d[5mC]*d[5mC]*dT*dG*dG*dG*dT*d[5mC]*dA*eT*e[5mC]*eA*eG*e[5mC]) [compound 416462]	60	
416463 (antisense eT*eG*e[5mC]*eT*eG*d[5mC]*dA*dG*dG*d[5mC]*dA*dG*dT*d[5mC]*d[5mC]*eT*eG*eG*eG*eT) [compound 416463]	39	
416464 (antisense eA*eA*e[5mC]*eA*eT*dG*dT*dA*d[5mC]*dT*d[5mC]*d[5mC]*dG*dT*dG*eA*eT*eA*eT*eT) [compound 416464]	53	
416465 (antisense e[5mC]*eA*e[5mC]*eT*eG*dT*d[5mC]*d[5mC]*d[5mC]*d[5mC]*d[5mC]*dT*dT*dG*d[5mC]*eA*eG*eG*eA*eG) [compound 416465]	51	
416466 (antisense eT*eG*eT*eG*eG*dG*d[5mC]*d[5mC]*dT*d[5mC]*d[5mC]*dA*d[5mC]*dT*dG*eT*e[5mC]*e[5mC]*e[5mC]*e[5mC]) [compound 416466]	57	
416467 (antisense e[5mC]*e[5mC]*e[5mC]*eT*eG*dG*d[5mC]*d[5mC]*d[5mC]*d[5mC]*dA*dG*d[5mC]*dT*dG*eA*e[5mC]*eG*eA*eT) [compound 416467]	55	
416468 (antisense eT*eG*eG*eG*eA*dG*dA*d[5mC]*d[5mC]*d[5mC]*dT*dG*dG*dT*dG*eT*eA*e[5mC]*eA*e[5mC]) [compound 416468]	46	
416469 (antisense eG*e[5mC]*eA*eG*e[5mC]*d[5mC]*dA*d[5mC]*dT*d[5mC]*dG*dA*dT*dG*dT*eA*e[5mC]*eT*eG*eG) [compound 416469]	55	
416470 (antisense eG*e[5mC]*eT*eT*eT*dT*dG*d[5mC]*dA*dG*d[5mC]*d[5mC]*dA*d[5mC]*dT*e[5mC]*eG*eA*eT*eG) [compound 416470]	39	
416471 (antisense eT*eG*eA*eG*e[5mC]*dT*dT*dT*dT*dG*d[5mC]*dA*dG*d[5mC]*d[5mC]*eA*e[5mC]*eT*e[5mC]*eG) [compound 416471]	62	
416473 (antisense e[5mC]*e[5mC]*e[5mC]*eT*eG*d[5mC]*d[5mC]*d[5mC]*d[5mC]*dT*d[5mC]*dT*dG*dT*d[5mC]*e[5mC]*eA*eG*e[5mC]*eG) [compound 416473]	61	
416474 (antisense eT*eG*eT*e[5mC]*eT*dG*d[5mC]*d[5mC]*dT*d[5mC]*d[5mC]*dA*dG*dG*dA*e[5mC]*eA*eA*e[5mC]*e[5mC]) [compound 416474]	40	
416475 (antisense e[5mC]*eT*e[5mC]*eA*eG*d[5mC]*dT*dG*dG*dG*d[5mC]*dT*dG*dT*d[5mC]*eT*eG*e[5mC]*e[5mC]*eT) [compound 416475]	70	
416476 (antisense eG*e[5mC]*eA*eG*eG*dT*dG*dG*dG*d[5mC]*dT*dT*dG*dG*d[5mC]*eT*eG*eA*eA*eG) [compound 416476]	58	
416478 (antisense eG*eT*e[5mC]*eT*e[5mC]*d[5mC]*dA*dG*d[5mC]*dA*dA*dT*dG*dA*dA*eG*eG*e[5mC]*eA*eG) [compound 416478]	44	
416479 (antisense eG*eA*e[5mC]*eA*eG*d[5mC]*dA*d[5mC]*dA*d[5mC]*dA*dT*dG*dG*dA*eG*eT*e[5mC]*eA*eG) [compound 416479]	56	% Inhibition (human Factor 7 mRNA levels) (oligonucleotides targeted to nucleobases 15098 to 15122 of SEQ ID NO: 1 (Table 12)): 47%
416480 (antisense eA*eA*eG*eT*eG*dA*dG*dA*dG*d[5mC]*dT*dA*dA*dA*d[5mC]*eA*eA*e[5mC]*e[5mC]*eG) [compound 416480]	25	
416481 (antisense eA*eG*eA*eT*eG*dA*dT*dA*dA*dT*dG*dG*dA*dT*dA*eA*eG*eA*eA*e[5mC]) [compound 416481]	15	
416482 (antisense e[5mC]*eA*eT*eG*eG*dT*dG*dA*dT*dG*d[5mC]*dT*dT*d[5mC]*dT*eG*eA*eA*eT*eT) [compound 416482]	64	% Inhibition (Table 13 (microwalk), 50 nM): 64%
416483 (antisense eT*eG*eT*eG*eA*dG*dG*dG*dT*dT*d[5mC]*dA*dT*dT*dT*e[5mC]*eA*eG*eT*eG) [compound 416483]	22	
